Data taken from patent US5198445A, “Composition and use of substituted 3-thio-2-propynenitriles as industrial antimicrobials” (The Dow Chemical Company, priority 1992, dated 1993).
Values after ≈ are worked out from the molar mass of the structure shown. Read-outs that look alike come from different tables or passages of the source.

Columns and labels:
[1] = test system: Trichoderma viride (Tv); assay: MIC in malt yeast agar, Trichoderma viride; type: cell-based, Trichoderma viride ATCC 8678; conditions: read-out: Minimum Inhibitory Concentration, Tv
Procedure: (§1) The minimum inhibitory concentration (MIC) for the compounds listed in Table I is determined for 9 bacteria, using nutrient agar, and 7 yeast and fungi, using malt yeast agar. A one percent solution of the test compound is prepared in a mixture of acetone and water. Nutrient agar is prepared at pH 6.8, representing a neutral medium, and at pH 8.2, representing an alkaline medium. The nutrient agars are prepared by adding 23 g of nutrient agar to one-liter of deionized water. In addition, the alkaline medium is prepared by adjusting a 0.04M solution of N-[tris-(hydroxymethyl)methyl]-glycine buffered deionized water with concentrated sodium hydroxide to a pH of […]. Malt yeast agar is prepared by adding 3 g yeast extract and 45 g malt agar per liter of deionized water. The specific agar is dispensed in 30 ml aliquots into 25×200 mm test tubes, capped and autoclaved for 15 minutes at 115° C. The test tubes containing the agar are cooled in a water bath until the temperature of the agar is 48° C. Then, an appropriate amount of the one percent solution of the test compound is added (except in the controls where no compound is added) to the respective test tubes so that the final concentrations are 500, 250, 100, 50, 25, 10, 5, 2.5, 1.0 and zero parts per million of the test compound in the agar, thus having a known concentration of test compound dispersed therein. The contents of the test tubes are then transferred to respective petri plates. After drying for 24 hours, the petri plates containing nutrient agar are inoculated with bacteria and those containing malt yeast agar are inoculated with yeast and fungi.
(§2) The inoculation with the yeast and fungi is accomplished as follows. Cultures of yeast and fungi are incubated for seven days on malt yeast agar at 30° C. These cultures are used to prepare suspensions by the following procedure. A suspension of each organism is prepared by adding 10 ml of sterile saline and 10 microliters of octylphenoxy polyethoxy ethanol (TRITON® X-100, a trademark of Rohm & Haas Company) to the agar slant of yeast or fungi. The sterile saline/octylphenoxy polyethoxy ethanol solution is then agitated with a sterile swab to suspend the microorganism grown on the slant. Each resulting suspension is diluted into sterile saline (1 part suspension: 9 parts sterile saline). Aliquots of these dilutions are placed in individual wells of Steer's Replicator and petri plates inoculated as previously described. The petri plates are incubated at 30° C. and read after 48 hours for yeast and 72 hours for fungi.
(§3) Table II lists the bacteria, yeast and fungi used in the MIC test described above along with their respective American Type Culture Collection (ATCC) identification numbers.
(§4) The following MIC and MEC antimicrobial tests, whose results are shown in Tables XIII-XVII, are performed using the same methods as described hereinabove.

[2] = test system: Aureobasidium pullulan (Ap); assay: MIC in malt yeast agar, Aureobasidium pullulan; type: cell-based, Aureobasidium pullulan ATCC 16622; conditions: read-out: Minimum Inhibitory Concentration, Ap
Procedure: as §1, §2, §3, §4

[3] = test system: mixture of the bacterial organisms listed in Table II; assay: Multiple Challenge Test in styrene-butadiene latex; type: cell-based, bacteria listed in Table II; conditions: Styrene-Butadiene Latex Formulation; 10 challenges
Procedure: (§5) Additionally, the ability of the compounds of Table I to serve as preservatives in a variety of formulated industrial, household, and commercial products is tested using a Multiple Challenge Test Protocol. In this test, the formulations include a styrene-butadiene latex, a tape joint, a hand lotion, and a shampoo. The styrene-butadiene latex test formulation used is Latex DL 238A, available from The Dow Chemical Company. The compositions of the tape joint, hand lotion and shampoo test formulations can be found in Tables V-VII.
(§6) The formulations are separated into 50 g aliquots and placed in sterile bottles. An appropriate amount of a fresh one percent stock solution of the test compound in acetone-water is added to achieve the desired final concentrations. A small portion of each of the test formulations is streaked onto Tryptic Soy Agar (TSA) petri plates using sterile cotton swabs to ensure that the formulations are sterile. If the formulation is sterile, then it is inoculated with 0.1 ml of a mixture of equal aliquots of the 24 hour cultures of each of the bacterial organisms listed in Table II. The test formulations are then incubated at 30° C. After 24 hours, each sample is streaked onto a TSA petri plate using a sterile swab. All plates are then incubated at 30° C. for 48 hours and then rated for microbial growth using the rating system listed in Table VIII. Samples with a rating of 3 or less are reinoculated as described in the procedure for the first inoculation. Samples with a rating of 4 or greater are not reinoculated but after another 24 hours are restreaked on TSA agar.
(§7) The normal interpretation of the results is that a concentration of the antimicrobial being tested is considered to be effective if no ratings greater than a 3 are observed throughout the 10 challenges. The Minimum Effective Concentration (MEC), which is used to compare the activity of the antimicrobial additives in the end-use formulations, is the minimum level that is effective under the conditions of the Multiple Challenge Test.

[4] = test system: Aspergillus niger (An); assay: MIC in malt yeast agar, Aspergillus niger; type: cell-based, Aspergillus niger ATCC 16404; conditions: read-out: Minimum Inhibitory Concentration, An
Procedure: as §1, §2, §3, §4

[5] = test system: mixture of the bacterial organisms listed in Table II; assay: Multiple Challenge Test in tape joint formulation; type: cell-based, bacteria listed in Table II; conditions: 10 challenges
Procedure: as §5, §6, §7

[6] = test system: Salmonella choleraesuis (Sc); assay: MIC in nutrient agar, Salmonella choleraesuis; type: cell-based, Salmonella choleraesuis ATCC 10708
Procedure: as §1
(§8) The inoculation with bacteria is accomplished by using the following procedure. Twenty-four hour-cultures of each of the bacteria are prepared by incubating the respective bacteria in tubes containing nutrient broth for 24 hours at 30° C. in a shaker. Dilutions of each of the 24 hour-cultures are made so that nine separate suspensions (one for each of the nine test bacteria) are made, each containing 10^8 colony forming units (CFU) per ml of suspension of a particular bacteria. Aliquots of 0.3 ml of each of the bacterial suspensions are used to fill the individual wells of Steer's Replicator. For each microbial suspension, 0.3 ml was used to fill three wells (i.e., three wells of 0.3 ml each) so that for the nine different bacteria, 27 wells are filled. The Steer's Replicator is then used to inoculate both the neutral and alkaline pH nutrient agar petri plates.
(§9) The inoculated petri plates are incubated at 30° C. for 48 hours and then read to determine if the test compound which is incorporated into the agar prevented growth of the respective bacteria.
as §3, §4

[7] = test system: Candida albicans (Ca); assay: MIC in malt yeast agar, Candida albicans; type: cell-based, Candida albicans ATCC 10231; conditions: read-out: Minimum Inhibitory Concentration, Ca
Procedure: as §1, §2, §3, §4

[8] = test system: Saccharomyces cerevisiae (Sc); assay: MIC in malt yeast agar, Saccharomyces cerevisiae; type: cell-based, Saccharomyces cerevisiae ATCC 4105; conditions: read-out: Minimum Inhibitory Concentration, Sc
Procedure: as §1, §2, §3, §4

[9] = test system: Pseudomonas aeruginosa (PRD-10); assay: MIC in nutrient agar, Pseudomonas aeruginosa PRD-10; type: cell-based, Pseudomonas aeruginosa ATCC 15442
Procedure: as §1, §8, §9, §3, §4

[10] = Salmonella enterica, CHOLERAESUIS, pH 6.8; read-out: Minimum Inhibitory Concentration, Sc
[11] = Salmonella enterica, CHOLERAESUIS, pH 8.2; read-out: Minimum Inhibitory Concentration, Sc
[12] = Pseudomonas aeruginosa, pH 6.8; read-out: Minimum Inhibitory Concentration, PRD
[13] = Pseudomonas aeruginosa, pH 8.2; read-out: Minimum Inhibitory Concentration, PRD

`CCSC#CC#N` [B, 3-ethylthio-2-propynenitrile] was tested, and the MIC [1] was 10 µg/mL (≈ 90 µM), the MIC ([2]; malt yeast agar) was < 1 µg/mL and the MEC [3] was 25 ppm. For the same molecule, the MIC ([4]; malt yeast agar) was 2.5 µg/mL (≈ 22.5 µM), the MEC [5] was 25 ppm and the MIC [6, 10] was 5 µg/mL (≈ 45 µM). The MIC [6, 11] was 10 µg/mL (≈ 90 µM), the MIC ([7]; malt yeast agar) was < 1 µg/mL and the MIC ([8]; malt yeast agar) was < 1 µg/mL. For the same molecule, the MIC [9, 12] was 25 µg/mL (≈ 225 µM) and the MIC [9, 13] was 25 µg/mL (≈ 225 µM).

Work on `N#CC#CSC1CCCC1` [C, 3-cyclopentylthio-2-propynenitrile] yielded an MIC ([1]; malt yeast agar) of 2.5 µg/mL (≈ 16.5 µM), an MIC ([2]; malt yeast agar) of 2.5 µg/mL (≈ 16.5 µM) and an MEC [3] of 100 ppm. The MIC ([4]; malt yeast agar) was 2.5 µg/mL (≈ 16.5 µM), the MEC [5] was 100 ppm and the MIC [6, 10] was < 10 µg/mL. The MIC [6, 11] was 25 µg/mL (≈ 165 µM), the MIC [8] was 2.5 µg/mL (≈ 16.5 µM) and the MIC [9, 12] was 250 µg/mL (≈ 1650 µM). The MIC [9, 13] was 250 µg/mL (≈ 1650 µM).

`CSC#CC#N` [Compound A, 3-methylthio-2-propynenitrile] was tested, and the MIC ([1]; malt yeast agar) was 0.25 µg/mL (≈ 2.57 µM), the MIC ([2]; malt yeast agar) was 2.5 µg/mL (≈ 25.7 µM) and the MEC [3] was 10 ppm. The MIC ([4]; malt yeast agar) was 2.5 µg/mL (≈ 25.7 µM), the MEC [5] was 10 ppm and the MIC [6, 10] was 2.5 µg/mL (≈ 25.7 µM). For the same molecule, the MIC [6, 11] was 5 µg/mL (≈ 51.5 µM), the “Minimum Inhibitory Concentration, Sc” value ([6]; pH 8.2) was 5 ppm and the MIC ([7]; malt yeast agar) was 0.5 µg/mL (≈ 5.15 µM). For the same molecule, the MIC ([8]; malt yeast agar) was 0.5 µg/mL (≈ 5.15 µM), the MIC [9, 12] was 2.5 µg/mL (≈ 25.7 µM) and the MIC [9, 13] was 5 µg/mL (≈ 51.5 µM). For the same molecule, the “Minimum Inhibitory Concentration, PRD” value ([9]; pH 8.2) was 5 ppm.

`CSC=C(Cl)C#N` [Compound G, 2-chloro-3-(methylthio)-2-propenenitrile] showed an MIC [1] of 100 µg/mL (≈ 748 µM), an MIC [2] of 50 µg/mL (≈ 374 µM) and an MIC [4] of 50 µg/mL (≈ 374 µM). It also gave an MIC ([6]; Salmonella enterica, CHOLERAESUIS, pH 6.8, read-out: Minimum Inhibitory Concentration, Sc) of 50 µg/mL (≈ 374 µM), an MIC ([6]; Salmonella enterica, CHOLERAESUIS, pH 8.2, read-out: Minimum Inhibitory Concentration, Sc) of 5 µg/mL (≈ 37.4 µM) and an MIC [7] of 50 µg/mL (≈ 374 µM). For the same molecule, the MIC [8] was 100 µg/mL (≈ 748 µM), the MIC ([9]; Pseudomonas aeruginosa, pH 6.8, read-out: Minimum Inhibitory Concentration, PRD) was 50 µg/mL (≈ 374 µM) and the MIC ([9]; Pseudomonas aeruginosa, pH 8.2, read-out: Minimum Inhibitory Concentration, PRD) was 10 µg/mL (≈ 74.8 µM).

`N#CC#CSc1ccc(Cl)cc1` [D, 3-(4-chlorophenylthio)-2-propynenitrile] was tested, and the MIC ([1]; malt yeast agar) was 2.5 µg/mL (≈ 12.9 µM), the MIC ([2]; malt yeast agar) was < 1 µg/mL and the MEC [3] was 100 ppm. The MIC ([4]; malt yeast agar) was < 1 µg/mL, the MEC [5] was 100 ppm and the MIC [6, 10] was < 10 µg/mL. For the same molecule, the MIC [6, 11] was 50 µg/mL (≈ 258 µM), the MIC ([7]; malt yeast agar) was < 1 µg/mL and the MIC ([8]; malt yeast agar) was < 1 µg/mL. For the same molecule, the MIC [9, 12] was 25 µg/mL (≈ 129 µM) and the MIC [9, 13] was 100 µg/mL (≈ 516 µM).
